Assay results from ChEMBL document CHEMBL5661955, “ASAP - In vitro cytotoxicity” (2024).
Several values for one entry are separate records, joined by “and”; a condition that tells them apart may be missing. Equal values may be shown once.

What was measured:
[1] = Functional metabolic assay to measure dose dependent changes in cell viability from drug treatment in Vero E6/TMPRSS2 cells (cotreated with P-gp inhibitor, Elacridar). […] Cytotoxicity is reported via measuring absorbance and analysis of MTT/MTS assays in uninfected cells. The assay has been performed by Icahn School of Medicine at Mount Sinai.; format: toxicity, cell-based, VeroE6/TMPRSS2; conditions: chlorocebus sabaeus, p-gp concentration 2 uM; for CC50: Vero E6/TMPRSS2 cells, with Elacridar (P-gp inhibitor, concentration not stated); for CC10: veroe6/tmprss2
[2] = Functional assay to measure dose dependent changes in cell viability from drug treatment in Vero E6 miRFP670 cells (cotreated with P-gp inhibitor, CP100356) that are infected with Dengue virus type 2 New Guinea C. […] Cytotoxicity is reported via via analysis of DAPI count using high-content imager. The assay has been performed by KU Leuven.; format: toxicity, cell-based, Vero C1008; conditions: chlorocebus sabaeus, p-gp concentration 500 nM
[3] = (§1) Functional CPE-based assay to measure dose dependent changes in cell viability from drug treatment in Vero E6 miRFP670 cells (cotreated with P-gp inhibitor, CP100356). Cells are treated with antiviral candidates that have been serially diluted. Cytotoxicity is reported via analysis of MTS assays in uninfected cells. The assay has been performed by KU Leuven.; format: toxicity, Vero C1008; conditions: chlorocebus sabaeus, p-gp concentration 500 nM
[4] = as §1, with “cells.” for “cells (cotreated with P-gp inhibitor, CP100356).”; format: toxicity, Vero C1008; conditions: chlorocebus sabaeus, Vero E6 miRFP670 cells
[5] = with CP100356 (P-gp inhibitor, concentration not stated)
[6] = Vero E6 miRFP670 cells, with CP100356 (P-gp inhibitor, concentration not stated)

SMILES | CC50 [1] [µM] | CC10 [1] | CC50 [2, 5] [µM] | CC50 [3, 6] [µM] | CC50 ([2]; vero c1008) | CC50 ([3]; vero c1008) | CC50 [4] [µM]
COc1cc(Br)cc(C(=O)Nc2ccc3c(c2)CNC3)c1 | > 50 | 4.817 µM | 27.5 | 47.5 | – | – | –
COCCNC(=O)[C@H](Nc1ccc2c(c1)CNC2)c1cc(Cl)cc(C2CC2)c1 | > 50 | > 50 µM | > 50 | > 50 | – | – | –
O=C(NCC(F)F)[C@H](Nc1ccc2c(c1)CNC2)c1cc(Cl)cc(C2CC2)c1 | > 50 | – | – | > 50 | > 50 µM and 21.1 µM and 27.1 µM | 46.9 µM and 47.6 µM | –
O=C(NC[C@H]1CCCO1)[C@H](Nc1ccc2c(c1)CNC2)c1cc(Cl)cc2[nH]ncc12 | > 50 | > 50 µM | > 50 | > 50 | – | – | –
O=C(O)Cc1c[nH]c2cc(-c3cc(Cl)cc(NC(=O)OCc4ccccc4)c3)ccc12 | – | – | 18 | 32.1 | – | – | –
Cc1cc(C(=O)Nc2ccc3c(c2)CNC3)c2cn[nH]c2c1 | – | 24.901 µM and 9.914 µM | 24 | > 50 | – | – | –
Cn1cc2cc(Cl)cc(C(=O)Nc3ccc4c(c3)CNC4)c2n1 | > 50 | > 50 µM | 3.58 | 2.75 | – | – | –
O=C(Nc1cc(Cl)cc(-c2cnn(Cc3ccc(C(=O)O)cc3)c2)c1)OCc1ccccc1 | – | – | 24 | 35.5 | – | – | –
Nc1cc(Cl)cc(C(=O)Nc2ccc3c(c2)CNC3)c1N | > 50 | < 0.023 µM | > 50 | > 50 | – | – | –
N#CCCNC(=O)[C@H](Nc1ccc2c(c1)CNC2)c1cc(Cl)cc(C2CC2)c1 | > 50 | > 50 µM | 24.2 | > 50 | – | – | –
O=C(Nc1ccc2c(c1)CNC2)c1cc(Br)cc2[nH]c([C@H]3CCOC3)nc12 | 26.1 | 0.852 µM | 3.68 | 5.11 | – | – | –
FC(F)(F)Oc1cc(Cl)cc2c(Cc3ccc(-c4nnn[nH]4)cc3)c[nH]c12 | – | – | 11.1 | 30.6 | – | – | –
CNC(=O)[C@H](Nc1ccc2c(c1)CNC2)c1cc(Cl)cc(C2CC2)c1 | > 50 | > 50 µM | > 50 | > 50 | – | – | –
N#C[C@H](Nc1ccc2c(c1)CNC2)c1cc(Cl)cc(C2CC2)c1 | > 50 | > 50 µM | > 50 | 46.5 | – | – | –
O=C(Nc1ccc2c(c1)CNC2)c1cc(F)cc2[nH]nnc12 | > 50 | > 50 µM | > 50 | > 50 | – | – | –
Clc1cc(CNc2ccc3c(c2)CNC3)c2cn[nH]c2c1 | – | – | 21.4 | 29.8 | – | – | –
O=C(NC1CCOCC1)[C@H](Nc1ccc2c(c1)CNC2)c1cc(Cl)cc(C2CC2)c1 | > 50 | > 50 µM | > 50 | 49.9 | – | – | –
Cn1cc(CNC(=O)[C@H](Nc2ccc3c(c2)CNC3)c2cc(Cl)cc(C3CC3)c2)cn1 | > 50 | – | > 50 | > 50 | – | – | –
O=C(Nc1ccc2c(c1)CNC2)c1cc(C(F)(F)F)cc2[nH]ccc12 | > 50 | > 50 µM | > 50 | > 50 | – | – | –
Cn1cc(CCc2nc3c(C(=O)Nc4ccc5c(c4)CNC5)cc(Cl)cc3[nH]2)cn1 | > 50 | 17.311 µM | > 50 | > 50 | – | – | –
O=C(Nc1ccc2c(c1)CNC2)c1cc(F)cc2[nH]ncc12 | > 50 | > 50 µM | > 50 | > 50 | – | – | –
COC(=O)c1cc(Br)cc2c(Cc3ccc(-c4nnn[nH]4)cc3)c[nH]c12 | – | – | 9.83 | 36.9 | – | – | –
O=C(Nc1ccc2c(c1)CCNCC2)c1cc(Cl)cc2[nH]ncc12 | 44.2 | 7.014 µM | > 50 | > 50 | – | – | –

SMILES | CC50 [1] [µM] | CC10 [1] | CC50 [2, 5] [µM] | CC50 [3, 6] [µM] | CC50 ([2]; vero c1008) | CC50 ([3]; vero c1008) | CC50 [4] [µM]
O=C(Nc1ccc2c(c1)CNC2)c1cc(Br)cc2[nH]ncc12 | > 50 | > 50 µM | > 50 | > 50 | – | – | –
O=C(NC[C@H]1CCCO1)[C@H](Nc1ccc2c(c1)CNC2)c1cc(Cl)cc(C2CC2)c1 | > 50 | > 50 µM | > 50 | 39.2 | – | – | –
COC(=O)CNC(=O)[C@H](Nc1ccc2c(c1)CNC2)c1cc(Cl)cc(C2CC2)c1 | > 50 | – | 2.05 | > 50 | – | – | –
Cc1ccc(NC(=O)c2cc(Cl)cc3[nH]ncc23)cc1CN | > 50 | 0.133 µM | > 50 | > 50 | – | – | –
Cc1c(C(=O)Nc2cc([C@H]3CCOC3)ccn2)cc(C2CC2)n1C | > 50 | > 50 µM | > 50 | – | 29.2 µM | 9.14 µM and > 50 µM | –
O=C(NCc1ccc(F)cc1)[C@H](Nc1ccc2c(c1)CNC2)c1cc(Cl)cc2[nH]ncc12 | – | > 50 µM | > 50 | > 50 | – | – | –
N[C@H]1Cc2ccc(NC(=O)c3cc(Cl)cc4[nH]ncc34)cc2C1 | > 50 | > 50 µM | > 50 | > 50 | – | – | –
O=C(Nc1ccc2c(c1)CNC2)c1cc(Cl)cc2ccncc12 | > 50 | > 50 µM | > 50 | > 50 | – | – | –
N#Cc1cc(C(=O)Nc2ccc3c(c2)CNC3)cc(C(F)(F)F)c1 | > 50 | > 50 µM | 0.739 | > 50 | – | – | –
O=C1Cc2c(cc(Br)cc2C(=O)Nc2ccc3c(c2)CNC3)N1 | > 50 | – | 27.7 | > 50 | – | – | –
CN(c1ccc2c(c1)CNC2)[C@H](C(=O)NCC(F)F)c1cc(Cl)cc(C2CC2)c1 | – | – | 14.3 | 9.32 | – | – | –
CC(C)Oc1ccc(S(=O)(=O)Nc2ccc(Cl)cc2C(=O)O)cc1 | – | – | – | – | – | – | > 50
N#C[C@H](Nc1cncc(-c2nn[nH]n2)c1)c1cc(Cl)cc(NC(=O)OCc2ccccc2)c1 | – | – | – | – | – | – | > 50
O=C(Nc1cc(Cl)cc([C@H]2[C@H](CO)[C@@H]2c2cccc(-c3nn[nH]n3)c2)c1)OCc1ccccc1 | – | – | – | – | – | – | > 50
O=C(Nc1cccc(-c2nnn[nH]2)c1)c1cc(Cl)cc2[nH]ncc12 | – | – | – | – | – | – | > 50
O=C1Cc2c(cccc2C(=O)Nc2ccc3c(c2)CCNCC3)N1 | – | – | > 50 | > 50 | – | – | –
O=C(Nc1cc(Cl)cc(C(=O)Nc2cccc([C@H]3C[C@H]3C(=O)O)c2)c1)OCc1ccccc1 | – | – | – | – | – | – | > 50
Cc1c(C(=O)Nc2cc(-c3cccnc3)ccn2)cc(C2CC2)n1C | > 50 | 13.062 µM | 18.9 | > 50 | 11.9 µM | 40.1 µM | –
COc1ccc(S(=O)(=O)Nc2cc(F)c(Cl)cc2C(=O)NCC(C)C)cc1 | – | – | – | – | – | – | 4.25
O=C(Nc1ccc2c(c1)CNC2)c1cc(Cl)cc2[nH]c(-c3c[nH]c(=O)c(Br)c3)nc12 | – | – | 14.3 | > 50 | – | – | –
O=C(Nc1cnc2c(c1)CNC2)c1cc(F)cc2[nH]ncc12 | – | – | > 50 | > 50 | – | – | –
O=C(NCC(F)F)[C@H](Nc1cc2c(cc1Br)CNC2)c1cc(Cl)cc(C2CC2)c1 | – | – | 6.39 | 5.82 | – | – | –
O=C(Nc1ccc2c(c1)CN[C@H]2CC1CC1)c1cc(F)cc2[nH]ncc12 | – | – | 18.7 | 11.8 | – | – | –

SMILES | CC50 [1] [µM] | CC10 [1] | CC50 [2, 5] [µM] | CC50 [3, 6] [µM] | CC50 ([2]; vero c1008) | CC50 ([3]; vero c1008) | CC50 [4] [µM]
O=C1Nc2ccc(C(=O)Nc3ccc4c(c3)CNC4)cc2C1=O | – | – | 25.7 | > 50 | – | – | –
CC(C)(C)OC(=O)N1Cc2ccc(N[C@H](C(=O)O)c3cc(Cl)cc4[nH]ncc34)cc2C1 | – | – | 28.9 | > 50 | – | – | –
O=C(NCC1CC1)c1cc(Cl)ccc1NS(=O)(=O)c1ccc(Oc2ccccc2Cl)cc1 | – | – | – | – | – | – | 5.46
CCOCCNC(=O)c1cc(Cl)ccc1NS(=O)(=O)c1ccc(Oc2ccccc2Cl)cc1 | – | – | – | – | – | – | 8.81
NCc1ccc(-c2csc3cc(C(=O)Nc4ccc5c(c4)CNC5)ccc23)cc1 | – | – | 4.14 | 31.9 | – | – | –
O=C(Nc1cc(Cl)cc(C(=O)Nc2ccc(-n3nn[nH]c3=O)cc2)c1)OCc1ccccc1 | – | – | 31.8 | > 50 | – | – | –
O=C(NCC(F)F)[C@H](Nc1cnc2c(c1)CNC2)c1cc(Cl)cc(C2CC2)c1 | – | – | > 50 | > 50 | – | – | –
NCc1cccc(NC(=O)c2cc(Cl)cc(C3CC3)c2)c1 | – | – | – | – | – | – | 46.6
NCc1csc2cc(C(=O)Nc3ccc4c(c3)CNC4)ccc12 | – | – | 5.74 | > 50 | – | – | –
COc1cc(-c2cc(Cl)cc(NC(=O)OCc3ccccc3)c2)c(OC)cc1CC(=O)O | – | – | – | – | – | – | 49.8
NCc1cccc(NC(=O)c2cc(Cl)cc3[nH]ncc23)c1 | – | – | – | – | – | – | > 50
O=C(Nc1ccc2c(c1)CNC2)c1cccc2c(C3CNC3)n[nH]c12 | – | – | > 50 | > 50 | – | – | –
O=C(NC1CCCCC1)c1cc(Cl)ccc1NS(=O)(=O)c1ccc(Oc2ccccc2Cl)cc1 | – | – | – | – | – | – | 3.46
O=C(Nc1cccc(-c2nnn[nH]2)c1)c1cc(Cl)cc(C2CC2)c1 | – | – | – | – | – | – | > 50
CC(=O)NCc1cccc(NC(=O)c2cc(Cl)cc(NC(=O)OCc3ccccc3)c2)c1 | – | – | – | – | – | – | 38
O=C(Nc1ccc2c(c1)CNC2)c1cc(Br)cc2c1nc1n2CCCC1 | – | – | 1.27 | 0.847 | – | – | –
C[C@H]1C(=O)Nc2ccc(C(=O)Nc3ccc4c(c3)CNC4)cc21 | – | – | > 50 | > 50 | – | – | –
O=C(Nc1cc(Cl)cc(-c2cccc3c(C(=O)O)cccc23)c1)OCc1ccccc1 | – | – | – | – | – | – | < 0.391
NCc1cc(Cl)cc(C(=O)Nc2ccc3c(c2)CNC3)c1 | – | – | – | – | – | – | > 50
CCc1cc(C(=O)Nc2cccc(-c3nnn[nH]3)c2)sc1-c1ccc(Cl)cc1 | > 50 | > 50 µM | > 50 | 38.6 | – | – | –
N[C@H]1Cc2ccc(NC(=O)c3cccc4c3CC(=O)N4)cc2C1 | – | – | > 50 | > 50 | – | – | –
